Test system: Jurkat cells
Assay: (r) Cell cytotoxicity assay
Type: cell-based, human
Settings: 24 hours
Description: 1×10^5 Jurkat cells (immortalised human T lymphocytes) are added to the appropriate number of wells of a 96 well plate in 100 μL of media (RPMI supplemented with 10% foetal bovine serum). 1 μL of DMSO control (final concentration 1.0% v/v) or test compound (final concentration 20, 5 or 1 μg/mL) is added to the wells and incubated at 37° C., 5% CO2. After 24 hours, the plate is centrifuged at 1200 rpm for 3 minutes and the supernatant discarded. Cells are then resuspended in 150 μL (final concentration 7.5 μg/mL) of propidium iodide (PI) in PBS and incubated at 37° C., 5% CO2 for 15 minutes. After 15 minutes, cells are analysed by flow cytometry (BD accuri) using the FL3 window. The % viability is calculated as the % of cells that are PI negative in the test wells normalised to the DMSO control.

Row | SMILES | % Viability at 1 μg/mL [%] | % Viability at 5 μg/mL [%] | % Viability at 20 μg/mL [%]
1 | COc1c(NC(=O)Nc2ccc(Oc3ccnc(Nc4ccc(C(=O)NCCN5CCN(C)CC5)c(N(C)C)c4)c3)c3ccccc23)cc(C(C)(C)C)cc1NS(C)(=O)=O [17(bq), 4-((4-((4-(3-(5-(tert-Butyl)-2-methoxy-3-(methylsulfonamido)phenyl)ureido)naphthalen-1-yl)oxy)pyridin-2-yl)amino)-2-(dimethylamino)-N-(2-(4-methylpiperazin-1-yl)ethyl)benzamide] | 87.2 | 55.3 | 2.0
2 | COc1cc(Nc2cc(Oc3ccc(NC(=O)Nc4cc(C(C)(C)C)cc(NS(C)(=O)=O)c4OC)c4ccccc34)ccn2)ccc1C(=O)NCCN1CCN(C(C)C)CC1 [17(bf), 4-((4-((4-(3-(5-(tert-Butyl)-2-methoxy-3-(methylsulfonamido)phenyl)ureido)naphthalen-1-yl)oxy)pyridin-2-yl)amino)-N-(2-(4-isopropylpiperazin-1-yl)ethyl)-2-methoxybenzamide] | 90.7 | 1.5 | 0.6
3 | COc1cc(Nc2cc(Oc3ccc(NC(=O)Nc4cc(C(C)(C)C)cc(NS(C)(=O)=O)c4OC)c4ccccc34)ccn2)ccc1C(=O)NCCN1CC[C@@H](O)C1 [17(cr), (R)-4-((4-((4-(3-(5-(tert-Butyl)-2-methoxy-3-(methylsulfonamido)phenyl)ureido)-naphthalen-1-yl)oxy)pyridin-2-yl)amino)-N-(2-(3-hydroxypyrrolidin-1-yl)ethyl)-2-methoxybenzamide] | 81.1 | 18.0 | 0.9
4 | COc1cc(Nc2cc(Oc3ccc(NC(=O)Nc4cc(C(C)(C)C)cc(NS(C)(=O)=O)c4OC)c4ccccc34)ccn2)ccc1C(=O)N(C)CCN1CCN(C)CC1 [17(bh), 4-((4-((4-(3-(5-(tert-Butyl)-2-methoxy-3-(methylsulfonamido)phenyl)ureido)naphthalen-1-yl)oxy)pyridin-2-yl)amino)-2-methoxy-N-methyl-N-(2-(4-methylpiperazin-1-yl)ethyl)benzamide] | 99.5 | 67.8 | 0.6
5 | COc1cc(Nc2cc(Oc3ccc(NC(=O)Nc4cc(C(C)(C)C)cc(NS(C)(=O)=O)c4OC)c4ccccc34)ccn2)cc(OC)c1C(=O)NCCC1CCN(C)CC1 [17(at), 4-((4-((4-(3-(5-(tert-Butyl)-2-methoxy-3-(methylsulfonamido)phenyl)ureido)naphthalen-1-yl)oxy)pyridin-2-yl)amino)-2,6-dimethoxy-N-(2-(1-methylpiperidin-4-yl)ethyl)benzamide] | 95.2 | 93.2 | 86.6
6 | COc1cc(Nc2cc(Oc3ccc(NC(=O)Nc4cc(C(C)(C)C)cc(NS(C)(=O)=O)c4OC)c4ccccc34)ccn2)ccc1C(=O)NCCOCCOCCC(=O)O [17(x), 3-[2-[2-[[4-[[4-[[4-[[5-tert-butyl-3-(methanesulfonamido)-2-methoxyphenyl]carbamoyl-amino]-1-naphthyl]oxy]-2-pyridyl]amino]-2-methoxy-benzoyl]amino]ethoxy]ethoxy]propanoic acid] | 95.4 | 94.2 | 38.9
7 | COc1cc(Nc2cc(Oc3ccc(NC(=O)Nc4cc(C(C)(C)C)cc(NS(C)(=O)=O)c4OC)c4ccccc34)ccn2)ccc1S(=O)(=O)CCCN1CCN(C)CC1 [17(ch), N-(5-(tert-Butyl)-2-methoxy-3-(3-(4-((2-((3-methoxy-4-((3-(4-methylpiperazin-1-yl)propyl)sulfonyl)phenyl)amino)pyridin-4-yl)oxy)naphthalen-1-yl)ureido)phenyl)methanesulfonamide] | 82.0 | 10.2 | 0.7
8 | COc1cc(Nc2nccc(Oc3ccc(NC(=O)Nc4cc(C(C)(C)C)cc(NS(C)(=O)=O)c4OC)c4ccccc34)n2)ccc1C(=O)NCCOCCOCCO [17(by), 4-((4-((4-(3-(5-(tert-Butyl)-2-methoxy-3-(methylsulfonamido)phenyl)ureido)naphthalen-1-yl)oxy)pyrimidin-2-yl)amino)-N-(2-(2-(2-hydroxyethoxy)ethoxy)ethyl)-2-methoxybenzamide] | 102.4 | 81.5 | 1.6
9 | COc1cc(Nc2cc(Oc3ccc(NC(=O)Nc4cc(C(C)(C)C)cc(NS(C)(=O)=O)c4OC)c4ccccc34)ccn2)ccc1-c1nn[nH]n1 [Example 24, N-(5-(tert-Butyl)-2-methoxy-3-(3-(4-((2-((3-methoxy-4-(2H-tetrazol-5-yl)phenyl)amino)pyridin-4-yl)oxy)naphthalen-1-yl)ureido)phenyl)methanesulfonamide] | 104.3 | 92.4 | 9.7
10 | COc1cc(Nc2cc(Oc3ccc(NC(=O)Nc4cc(C(C)(C)C)cc(NS(C)(=O)=O)c4OC)c4ccccc34)ccn2)ccc1C(=O)NCCNC(=O)CCC(=O)O [17(cd), 4-((2-(4-((4-((4-(3-(5-(tert-Butyl)-2-methoxy-3-(methylsulfonamido)phenyl)ureido)-naphthalen-1-yl)oxy)pyridin-2-yl)amino)-2-methoxybenzamido)ethyl)amino)-4-oxobutanoic acid] | 96.4 | 96.5 | 91.4
11 | COc1c(NC(=O)Nc2ccc(Oc3ccnc(Nc4ccc(C(=O)NCCOCCOCCO)c(N(C)C)c4)c3)c3ccccc23)cc(C(C)(C)C)cc1NS(C)(=O)=O [17(bt), 4-((4-((4-(3-(5-(tert-Butyl)-2-methoxy-3-(methylsulfonamido)phenyl)ureido)naphthalen-1-yl)oxy)pyridin-2-yl)amino)-2-(dimethylamino)-N-(2-(2-(2-hydroxyethoxy)ethoxy)ethyl) benzamide] | 89.8 | 39.9 | 22.5
12 | COc1cc(Nc2cc(Oc3ccc(NC(=O)Nc4cc(C(C)(C)C)cc(NS(C)(=O)=O)c4OC)c4ccccc34)ccn2)ccc1C(=O)NCCC1(O)CCN(C)CC1 [17(bg), 4-((4-((4-(3-(5-(tert-Butyl)-2-methoxy-3-(methylsulfonamido)phenyl)ureido)naphthalen-1-yl)oxy)pyridin-2-yl)amino)-N-(2-(4-hydroxy-1-methylpiperidin-4-yl)ethyl)-2-methoxy benzamide] | 86.5 | 60.0 | 0.3
13 | COc1cc(Nc2cc(Oc3ccc(NC(=O)Nc4cc(C(C)(C)C)cc(NS(C)(=O)=O)c4OC)c4ccccc34)ccn2)ccc1-n1ccccc1=O [Example 31, N-(5-(tert-Butyl)-2-methoxy-3-(3-(4-((2-((3-methoxy-4-(2-oxopyridin-1 (2H)-yl)phenyl)amino)-pyridin-4-yl)oxy)naphthalen-1-yl)ureido)phenyl)methanesulfonamide] | 99.9 | 97.6 | 99.0
14 | COc1cc(Nc2cc(Oc3ccc(NC(=O)Nc4cc(NS(C)(=O)=O)cc(C(C)(C)C)c4)c4ccccc34)ccn2)ccc1C(=O)NCCN1CCN(C)CC1 [17(bo), 4-((4-((4-(3-(3-(tert-Butyl)-5-(methylsulfonamido)phenyl)ureido)naphthalen-1-yl)oxy)pyridin-2-yl)amino)-2-methoxy-N-(2-(4-methylpiperazin-1-yl)ethyl)benzamide] | 98.5 | 45.3 | 14.0
15 | COc1cc(Nc2cc(Oc3ccc(NC(=O)Nc4cc(C(C)(C)C)cc(NS(C)(=O)=O)c4OC)c4ccccc34)ccn2)ccc1C(=O)NCCN1CCN(C)CC1(C)C [17(bi), 4-((4-((4-(3-(5-(tert-Butyl)-2-methoxy-3-(methylsulfonamido)phenyl)ureido)naphthalen-1-yl)oxy)pyridin-2-yl)amino)-2-methoxy-N-(2-(2,2,4-trimethylpiperazin-1-yl)ethyl)benzamide] | 97.4 | 0.8 | 0.6
16 | CCN1CCN(CCNC(=O)c2ccc(Nc3cc(Oc4ccc(NC(=O)Nc5cc(C(C)(C)C)cc(NS(C)(=O)=O)c5OC)c5ccccc45)ccn3)cc2OC)CC1 [17(be), 4-((4-((4-(3-(5-(tert-Butyl)-2-methoxy-3-(methylsulfonamido)phenyl)ureido)naphthalen-1-yl)oxy)pyridin-2-yl)amino)-N-(2-(4-ethylpiperazin-1-yl)ethyl)-2-methoxybenzamide] | 92.4 | 0.7 | 0.5
17 | COc1cc(Nc2cc(Oc3ccc(NC(=O)Nc4cc(C(C)(C)C)cc(NS(C)(=O)=O)c4OC)c4ccccc34)ccn2)ccc1C(=O)N[C@@H]1CCN(C)C1 [17(cq), (R)-4-((4-((4-(3-(5-(tert-Butyl)-2-methoxy-3-(methylsulfonamido)phenyl)ureido)-naphthalen-1-yl)oxy)pyridin-2-yl)amino)-2-methoxy-N-(1-methylpyrrolidin-3-yl)benzamide] | 74.3 | 9.0 | 0.7
18 | COc1cc(Nc2cc(Oc3ccc(NC(=O)Nc4cc(C(C)(C)C)cc(NS(C)(=O)=O)c4OC)c4ccccc34)ccn2)ccc1C(=O)N(C)CCN1CCOCC1 [17(ab), 4-[[4-[[4-[[5-tert-butyl-3-(methanesulfonamido)-2-methoxy-phenyl]carbamoylamino]-1-naphthyl]oxy]-2-pyridyl]amino]-2-methoxy-N-methyl-N-(2-morpholinoethyl)benzamide] | 108.6 | 95.6 | 93.9

— patent US10125100B2, “Kinase inhibitors” (Respivert Limited, priority 2014, dated 2018)
